Source: ChEMBL document CHEMBL3596143, “Identification of tanshinone IIA as a natural monoacylglycerol lipase inhibitor by combined in silico and in vitro approach” (Medchemcomm, 2014)

Assays:
[1] = biological target: T1, Monoglyceride lipase (Homo sapiens) (UniProt Q99685); assay: (§1) Inhibition of MAGL (unknown origin) after 10 mins
T1 sequence (whole entry): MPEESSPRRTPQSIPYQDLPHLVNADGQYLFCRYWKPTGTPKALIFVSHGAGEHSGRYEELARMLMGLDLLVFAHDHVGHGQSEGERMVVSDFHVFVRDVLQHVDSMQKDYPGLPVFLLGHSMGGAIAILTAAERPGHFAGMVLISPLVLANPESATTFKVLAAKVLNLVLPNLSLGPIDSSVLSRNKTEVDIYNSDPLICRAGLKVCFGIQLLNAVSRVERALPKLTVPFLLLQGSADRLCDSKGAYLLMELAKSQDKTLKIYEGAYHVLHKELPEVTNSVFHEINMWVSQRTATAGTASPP

[2] = biological target: T2, Monoglyceride lipase (Homo sapiens, UniProt Q99685); assay: as §1
T2 sequence (Q99685 whole entry): T1 sequence (whole entry)

[3] = biological target: T1, Monoglyceride lipase (Homo sapiens); assay: Inhibition of MAGL (unknown origin) at 250 uM after 10 mins relative to control
[4] = biological target: T1, Monoglyceride lipase (Homo sapiens); assay: Inhibition of MAGL (unknown origin) at 125 uM after 10 mins relative to control
[5] = biological target: T1, Monoglyceride lipase (Homo sapiens); assay: Inhibition of MAGL (unknown origin) at 500 uM after 10 mins relative to control
[6] = biological target: T1, Monoglyceride lipase (Homo sapiens); assay: Inhibition of MAGL (unknown origin) at […] after 10 mins relative to control
[7] = biological target: T1, Monoglyceride lipase (Homo sapiens); details: 2 mM
Description: Inhibition of MAGL (unknown origin) at 2 mM after 10 mins relative to control

Row | SMILES | inhibition [3] | inhibition [4] | inhibition [5] | inhibition [6] | other results
1 | Cc1coc2c1C(=O)C(=O)c1c-2ccc2c1CCCC2(C)C [TANSHINONE IIA] | 79% | 72% | 85% | 95% | inhibition [1]: Dose-dependent effect; IC50 [2]: 48 µM
2 | O=c1c(-c2ccc(O)cc2)coc2c([C@@H]3O[C@H](CO)[C@@H](O)[C@H](O)[C@H]3O)c(O)ccc12 |  |  |  | 52% | 
3 | O=C(Oc1ccc([N+](=O)[O-])cc1)N1CCC(C(O)(c2ccc3c(c2)OCO3)c2ccc3c(c2)OCO3)CC1 |  |  |  |  | inhibition [7]: 94%
4 | CC1(C)OC(=O)C=C[C@]2(C)[C@H]3CC[C@@]4(C)[C@H](c5ccoc5)OC(=O)[C@H]5O[C@]54[C@]3(C)C(=O)C[C@@H]12 |  |  |  | 4% | 
5 | CC1(C)CC[C@]2(C(=O)O)CC[C@]3(C)C(=CC[C@@H]4[C@@]5(C)CC[C@H](O)C(C)(C)[C@@H]5CC[C@]43C)[C@@H]2C1 |  |  |  | 1% | 
6 | Cc1coc2c1C(=O)C(=O)c1c-2ccc2c(C)cccc12 | 15% | 12% | 31% | 58% | 
